Assays:
[1] = Bioavailability in rat at […], po dosed in 0.5% methylcellulose, 0.1% triacetin; type: ADME, organism-based; conditions: in vivo
[2] = Dissociation constant, pKa of the compound; type: physicochemical
[3] = tested on: Liver microsomes; experiment: Metabolic stability in human liver microsomes at 1 uM; type: ADME, Microsome
[4] = tested on: Liver microsomes; experiment: Metabolic stability in rat liver microsomes at 1 uM; type: ADME, Microsome
[5] = Clearance in rat at […], iv dosed in 50% PEG-400/water; type: ADME, organism-based; set-up: dose 1.5 mg/kg, route intravenous; conditions: in vivo
[6] = Volume of distribution at steady state in rat at […], iv dosed in 50% PEG-400/water; type: ADME, organism-based; set-up: dose 1.5 mg/kg, route intravenous; conditions: in vivo, read-out: Vdss
[7] = Half life in rat at […], iv dosed in 50% PEG-400/water; type: ADME, organism-based; set-up: dose 1.5 mg/kg, route intravenous; conditions: in vivo
[8] = AUC (0 to infinity) in rat at 2.0 mg/kg, po dosed in 2% D-alpha-tocopheryl polyethylene glycol 1000 succinate; type: ADME, organism-based; set-up: dose 2 mg/kg, route oral, time infinity; conditions: plasma
[9] = AUC (0 to infinity) in rat at […], po dosed in 0.5% methylcellulose, 0.1% triacetin; type: ADME, organism-based; set-up: time infinity, dose 2.1 mg/kg, route oral; conditions: in vivo
[10] = Tmax in rat at 2.0 mg/kg, po dosed in 2% D-alpha-tocopheryl polyethylene glycol 1000 succinate; type: ADME, organism-based; set-up: dose 2 mg/kg, route oral; conditions: in vivo
[11] = Tmax in rat at […], po dosed in 0.5% methylcellulose, 0.1% triacetin; type: ADME, organism-based; set-up: dose 2.1 mg/kg, route oral; conditions: in vivo
[12] = Cmax in rat at 2.0 mg/kg, po dosed in 2% D-alpha-tocopheryl polyethylene glycol 1000 succinate; type: ADME, organism-based; set-up: dose 2 mg/kg, route oral; conditions: in vivo
[13] = Cmax in rat at […], po dosed in 0.5% methylcellulose, 0.1% triacetin; type: ADME, organism-based; set-up: dose 2.1 mg/kg, route oral; conditions: in vivo
[14] = (§1) Bioavailability in rat at 2.0 mg/kg, po dosed in 2% D-alpha-tocopheryl polyethylene glycol 1000 succinate; type: ADME, organism-based; conditions: in vivo
[15] = AUC (0 to infinity) in rat at 2.0 mg/kg, po dosed in 0.5% methylcellulose, 0.1% triacetin; type: ADME, organism-based; set-up: time infinity, dose 2 mg/kg, route oral; conditions: in vivo
[16] = Tmax in rat at 2.0 mg/kg, po dosed in 0.5% methylcellulose, 0.1% triacetin; type: ADME, organism-based; set-up: dose 2 mg/kg, route oral; conditions: in vivo
[17] = Cmax in rat at 2.0 mg/kg, po dosed in 0.5% methylcellulose, 0.1% triacetin; type: ADME, organism-based; set-up: dose 2 mg/kg, route oral; conditions: in vivo
[18] = Clearance in rat at 2.7 mg/kg, iv dosed in 50% PEG-400/water; type: ADME, organism-based; set-up: dose 2.7 mg/kg, route intravenous; conditions: in vivo
[19] = Volume of distribution at steady state in rat at 2.7 mg/kg, iv dosed in 50% PEG-400/water; type: ADME, organism-based; set-up: dose 2.7 mg/kg, route intravenous; conditions: in vivo, read-out: Vdss
[20] = Half life in rat at 2.7 mg/kg, iv dosed in 50% PEG-400/water; type: ADME, organism-based; set-up: dose 2.7 mg/kg, route intravenous; conditions: in vivo
[21] = Bioavailability in rat at 2.0 mg/kg, po dosed in 0.5% methylcellulose, 0.1% triacetin; type: ADME, organism-based; conditions: in vivo
[22] = tested on: Rattus norvegicus; experiment: as §1; type: ADME, organism-based; conditions: in vivo
[23] = Ratio of drug level in brain to plasma in rat at 3 mg/kg, po after 4 hrs; type: ADME, organism-based; set-up: dose 3 mg/kg, route oral
[24] = Clearance in rat at 1.0 mg/kg, iv dosed in 50% PEG-400/water; type: ADME, organism-based; set-up: dose 1 mg/kg, route intravenous; conditions: in vivo
[25] = Volume of distribution at steady state in rat at 1.0 mg/kg, iv dosed in 50% PEG-400/water; type: ADME, organism-based; set-up: dose 1 mg/kg, route intravenous; conditions: in vivo, read-out: Vdss
[26] = Half life in rat at 1.0 mg/kg, iv dosed in 50% PEG-400/water; type: ADME, organism-based; set-up: dose 1 mg/kg, route intravenous; conditions: in vivo
[27] = Chemical stability in 0.1 N HCl after 4 hrs; type: physicochemical; conditions: read-out: Activity

| pKa [2] | Stability [3] | Stability [4] | AUC(0-inf) [15] [ng·h/mL] | Tmax [16] [h] | Cmax [17] [ng/mL] | Compound | other results |
| --- | --- | --- | --- | --- | --- | --- | --- |
| 3.48 | Stable | Stable | – | – | – | FC(F)(F)c1ccc(Nc2ncnc3cc(-c4ncccc4C(F)(F)F)ccc23)cn1 | bioavailability [1]: 61%; clearance [5]: 22 mL/min/kg; Vd [6]: 5.5 L/kg; half-life [7]: 4.2 h; AUC(0-inf) [8]: 1450 ng·h/mL; AUC(0-inf) [9]: 982 ng·h/mL; Tmax [10]: 1.7 h; Tmax [11]: 1.8 h; Cmax [12]: 211 ng/mL; Cmax [13]: 137 ng/mL; bioavailability [14]: 94% |
| 7.86 | – | – | – | – | – | FC(F)(F)c1ccc(Nc2nc(CCCN3CCOCC3)nc3cc(-c4ncccc4C(F)(F)F)ccc23)cc1 | – |
| – | Stable | Stable | – | – | – | CCOCc1nc(Nc2ccc(C(F)(F)F)nc2)c2ccc(-c3ncccc3C(F)(F)F)cc2n1 | – |
| – | Stable | Stable | – | – | – | CC(C)OCc1nc(Nc2ccc(C(F)(F)F)nc2)c2ccc(-c3ncccc3C(F)(F)F)cc2n1 | – |
| 7.51 | – | – | – | – | – | CC1CN(Cc2nc(Nc3ccc(C(F)(F)F)cc3)c3ccc(-c4ncccc4C(F)(F)F)cc3n2)CC(C)O1 (stereo not drawn) | – |
| – | Stable | Stable | – | – | – | FC(F)(F)c1ccc(Nc2nc(CN3CCOCC3)nc3cc(-c4ncccc4C(F)(F)F)ccc23)nc1 | – |
| – | – | – | 218 | 0.9 | 93 | C[C@@H]1CN(Cc2nc(Nc3ccc(C(F)(F)F)nc3)c3ccc(-c4ncccc4C(F)(F)F)cc3n2)C[C@H](C)O1 | – |
| 4.54 | – | – | 121 | 3 | 13 | FC(F)(F)c1ccc(Nc2ncnc3cc(-c4ncccc4C(F)(F)F)ccc23)cc1 [NGD-8243] | clearance [18]: 23 mL/min/kg; Vd [19]: 13 L/kg; half-life [20]: 8 h; AUC(0-inf) [8]: 1430 ng·h/mL; Tmax [10]: 0.67 h; Cmax [12]: 101 ng/mL; bioavailability [21]: 8%; F [22]: 99% |
| 3.7 | – | – | 3250 | 3.7 | 215 | COCc1nc(Nc2ccc(C(F)(F)F)cc2)c2ccc(-c3ncccc3C(F)(F)F)cc2n1 | Kp at 4 h [23]: 1.8; clearance [24]: 5.3 mL/min/kg; Vd [25]: 3.5 L/kg; half-life [26]: 6.9 h; bioavailability [21]: 50% |
| 3.26 | Stable | Stable | 7620 | 5.7 | 137 | FC(F)(F)c1ccc(Nc2ncnc3cc(-c4ncccc4C(F)(F)F)ccc23)nc1 | remaining at 4 h [27]: 57%; clearance [5]: 4.2 mL/min/kg; Vd [6]: 12 L/kg; half-life [7]: 38 h; bioavailability [21]: 89% |
| 7.68 | – | – | – | – | – | CN1CCN(Cc2nc(Nc3ccc(C(F)(F)F)cc3)c3ccc(-c4ncccc4C(F)(F)F)cc3n2)CC1 | – |
